In PubChem BioAssay AID1963865 (Molecular Pharmacology Branch, DTP, NCI, 2024):
pIC50: −log10 of the molar value.

Tested on: KRAS PDC multicell spheroid viability
Experiment: Anticancer human tumor 825966-067-R-J1-PDC patient-derived colon carcinoma cell line growth inhibition [KRAS2]
Conditions: for pIC50: curve of first compound; for viability, T/C: stronger effect = lower value
Summary of the method: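 KRAS-mutant tumor cells were grown as spheroids with HUVEC endothelial cells and human MSCs as stroma. Targeted agents were tested alone and with KRAS pathway inhibitors. Doses started at or near clinical Cmax, or 10 microM, descending half-log.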

[1] = second compound 0.1 µM, first compound 0.0316 µM
[2] = second compound 0.1 µM, first compound 0.1 µM
[3] = second compound 0.1 µM, first compound 0.316 µM
[4] = second compound 0.1 µM, first compound 1 µM
[5] = second compound 0.1 µM, first compound 3.16 µM
[6] = second compound 0.1 µM, first compound 10 µM
[7] = second compound 0.316 µM, first compound 0.0316 µM
[8] = second compound 0.316 µM, first compound 0.1 µM
[9] = second compound 0.316 µM, first compound 0.316 µM
[10] = second compound 0.316 µM, first compound 1 µM
[11] = second compound 0.316 µM, first compound 3.16 µM
[12] = second compound 0.316 µM, first compound 10 µM
[13] = second compound 1 µM, first compound 0.0316 µM
[14] = second compound 1 µM, first compound 0.1 µM
[15] = second compound 1 µM, first compound 0.316 µM
[16] = second compound 1 µM, first compound 1 µM
[17] = second compound 1 µM, first compound 3.16 µM
[18] = second compound 1 µM, first compound 10 µM
[19] = second compound 3.16 µM, first compound 0.0316 µM
[20] = second compound 3.16 µM, first compound 0.1 µM
[21] = second compound 3.16 µM, first compound 0.316 µM
[22] = second compound 3.16 µM, first compound 1 µM
[23] = second compound 3.16 µM, first compound 3.16 µM
[24] = second compound 3.16 µM, first compound 10 µM
[25] = second compound 10 µM, first compound 0.0316 µM
[26] = second compound 10 µM, first compound 0.1 µM
[27] = second compound 10 µM, first compound 0.316 µM
[28] = second compound 10 µM, first compound 1 µM
[29] = second compound 10 µM, first compound 3.16 µM
[30] = second compound 10 µM, first compound 10 µM
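Note: spheroids exposed to compounds for 7 days.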
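Throughout, for viability, T/C: 100% = DMSO vehicle control viability.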

Structure (SMILES)	pIC50 (second compound 0.1 µM)	pIC50 (second compound 0.316 µM)	pIC50 (second compound 1 µM)	pIC50 (second compound 3.16 µM)	viability, T/C [1]	viability, T/C [2]	viability, T/C [3]	viability, T/C [4]	viability, T/C [5]	viability, T/C [6]	viability, T/C [7]	viability, T/C [8]	viability, T/C [9]	viability, T/C [10]	viability, T/C [11]	viability, T/C [12]	viability, T/C [13]	viability, T/C [14]	viability, T/C [15]	viability, T/C [16]	also measured
CC1OCC2(CCN(c3cnc(Sc4ccnc(N)c4Cl)c(N)n3)CC2)C1N (stereo not given) + C=CC(=O)N1CCN(c2nc(OCC3CCCN3C)nc3c2CCN(c2cccc4cccc(C)c24)C3)CC1CC#N	5.06	5.16	5.14	5.24	84.6%	75%	114%	83.5%	89.9%	44.9%	94.5%	83.5%	90.4%	107%	115%	26.4%	87.2%	105%	97.7%	97.3%	pIC50 (second compound 0.0316 µM): 5.06; viability, T/C (second compound 0.0316 µM, first compound 0.0316 µM): 105%; viability, T/C (second compound 0.0316 µM, first compound 0.1 µM): 97%; viability, T/C (second compound 0.0316 µM, first compound 0.316 µM): 92.5%; viability, T/C (second compound 0.0316 µM, first compound 1 µM): 82.3%; viability, T/C (second compound 0.0316 µM, first compound 3.16 µM): 106%; viability, T/C (second compound 0.0316 µM, first compound 10 µM): 44%; viability, T/C [17]: 121%; viability, T/C [18]: 29.1%; viability, T/C [19]: 81.4%; viability, T/C [20]: 116%; viability, T/C [21]: 102%; viability, T/C [22]: 110%; viability, T/C [23]: 99%; viability, T/C [24]: 5.73%
COc1cc2nccc(Oc3ccc(NC(=O)C4(C(=O)Nc5ccc(F)cc5)CC4)cc3)c2cc1OC + CNCc1ccccc1-c1csc(C(C)Nc2nc(C)nc3cc(OC)c(OC)cc23)c1	5.76	5.76	5.73	6.72	86.2%	124%	94%	91.2%	4.92%	6.89%	74.8%	98.7%	94%	97.8%	3.71%	4.44%	97.9%	117%	104%	122%	pIC50 (second compound 10 µM): > 7.50; viability, T/C [17]: 0.94%; viability, T/C [18]: 0.47%; viability, T/C [19]: 113%; viability, T/C [20]: 59.8%; viability, T/C [21]: 53.4%; viability, T/C [22]: 1.03%; viability, T/C [23]: 0.6%; viability, T/C [24]: 0.24%; viability, T/C [25]: 0.28%; viability, T/C [26]: 0.32%; viability, T/C [27]: 0.24%; viability, T/C [28]: 0.18%; viability, T/C [29]: 0.17%; viability, T/C [30]: 0.29%
CCNC(=O)CC1N=C(c2ccc(Cl)cc2)c2cc(OC)ccc2-n2c(C)nnc21 (stereo not given) + COc1cc2nc(C)nc(NC(C)c3cc(N)cc(C(F)(F)F)c3)c2cc1OC1CCOC1	< 5.00	< 5.00	< 5.00	5.61	97.2%	119%	104%	80.3%	73.4%	69.1%	97.6%	111%	98.2%	75.2%	59.9%	69.1%	101%	109%	118%	77.1%	pIC50 (second compound 10 µM): 7.25; viability, T/C [17]: 98.8%; viability, T/C [18]: 70.8%; viability, T/C [19]: 131%; viability, T/C [20]: 97.6%; viability, T/C [21]: 114%; viability, T/C [22]: 71.7%; viability, T/C [23]: 41%; viability, T/C [24]: 47%; viability, T/C [25]: 77.8%; viability, T/C [26]: 19%; viability, T/C [27]: 17.4%; viability, T/C [28]: 8.42%; viability, T/C [29]: 13.1%; viability, T/C [30]: 1.45%
O=C(c1cc(Cc2n[nH]c(=O)c3ccccc23)ccc1F)N1CCN(C(=O)C2CC2)CC1 + C=CC(=O)N1CCN(c2nc(=O)n(-c3c(C)ccnc3C(C)C)c3nc(-c4c(O)cccc4F)c(F)cc23)C(C)C1	< 5.00	< 5.00	< 5.00	< 5.00	97.5%	89.9%	107%	71.9%	71.1%	77.9%	90.2%	96.8%	77.2%	81.9%	65.7%	80.9%	100%	84.3%	77.8%	62.8%	pIC50 (second compound 10 µM): < 5.00; viability, T/C [17]: 70.8%; viability, T/C [18]: 88.1%; viability, T/C [19]: 68.3%; viability, T/C [20]: 90.3%; viability, T/C [21]: 78.4%; viability, T/C [22]: 75.8%; viability, T/C [23]: 73.3%; viability, T/C [24]: 70.4%; viability, T/C [25]: 96.4%; viability, T/C [26]: 82.3%; viability, T/C [27]: 90.8%; viability, T/C [28]: 72%; viability, T/C [29]: 66.5%; viability, T/C [30]: 91.7%
